We go through one compound from US20050054620A1, “Paricalcitol as a chemotherapeutic agent” (priority 2003, published 2005).

In test [1] the test system is HT-29 cells. Kind of test: Western blot of cell lysates. It counts as cell-based, human. The note with it: 10^−7M, 72 hrs. As to the method:
Western blot analysis was used to determine the levels of proteins involved in cell cycle and differentiation. […] After centrifugation at 15,000×g for 15 min at 4° C., the suspension was collected. Protein concentrations were quantitated using the Bio-Rad assay (Bio-Rad Labolatories, Hercules, Calif.). […] The blots were developed using the Supersignal West Pico Chemiluminescent Substrate Kit (Pierce, Rockford, Ill.). In FIG. 4B, HT-29 cells were exposed to either paricalcitol (10^−7M) or 1,25(OH)2D3(10^−7M). Cell lysates were prepared after 72 hrs of culture and analyzed by Western blot. The Western blot was probed sequentially with antibodies for p27KIP1, p21WAF1, cyclin D1, c-myc and E-Cadherin (antibodies from Santa Cruz Biotechnology) as described in Example II. Control cells were treated with vehicle alone. The quantity of protein was normalized by comparison to the amount of GAPDH. In FIG. 4C, HT-29 and SW837 cells were cultured with either paricalcitol (10^−7M) or 1,25(OH)2D3 (10^−7M) for 72 hrs. Cell lysates were prepared and analyzed by Western blot which was probed sequentially with antibodies to COX-1 and COX-2 (Santa Cruz Biotechnology). Control cells were treated with vehicle alone. The amount of protein was normalized by comparison to the quantity of GAPDH.
(In general: In western blotting, separated proteins are transferred to a membrane and probed.)

The test system of test [2] is SW837 cells. Kind of test: Western blot of cell lysates. It counts as cell-based, human. The note with it: 10^−7M, 72 hrs. As to the method:
Western blot analysis was used to determine the levels of proteins involved in cell cycle and differentiation. […] After centrifugation at 15,000×g for 15 min at 4° C., the suspension was collected. Protein concentrations were quantitated using the Bio-Rad assay (Bio-Rad Labolatories, Hercules, Calif.). […] The blots were developed using the Supersignal West Pico Chemiluminescent Substrate Kit (Pierce, Rockford, Ill.). In FIG. 4C, HT-29 and SW837 cells were cultured with either paricalcitol (10^−7M) or 1,25(OH)2D3 (10^−7M) for 72 hrs. Cell lysates were prepared and analyzed by Western blot which was probed sequentially with antibodies to COX-1 and COX-2 (Santa Cruz Biotechnology). Control cells were treated with vehicle alone. The amount of protein was normalized by comparison to the quantity of GAPDH.

Test [3] has as its system RPMI-8226 myeloma cells. To be noted: 4 days exposure.

The structures appear in SMILES notation.

In the case of `C[C@H](/C=C/[C@H](C)C(C)(C)O)[C@H]1CC[C@H]2/C(=C/C=C3C[C@@H](O)C[C@H](O)C3)CCC[C@]12C` [paricalcitol, 19-nor-1,25, (OH)2D3], in test [1], the “decrease of COX-2 expression” value is 40%, the “decrease of c-myc expression” value is roughly 40%, the “decrease of cyclin D1 expression” value is listed as “about 50%” and the “effect on COX-1 expression” value is on record as “without affecting”. In test [1], the “increase of E-cadherin” value was “about 6 fold”, the “increase of p21WAF1 protein level” value is on record as “about 5 fold” and the “increase of p27KIP1 protein level” value is recorded as roughly 6 fold. Moreover, in test [2], the “decrease of COX-2 expression” value turned out to be 40% and the “effect on COX-1 expression” value is on record as “without affecting”. In addition, in test [3], the antiproliferative effect result is reported as “somewhat less than the effect on NCI-H929 cells”.
